Assay [1] concerns the target T1, vitronectin receptor (Vn-R) (Homo sapiens, UniProt P05106+P06756).
T1 construct: from tissue; host or cells: human placenta
Briefly: Vitronectin receptor binding (ELISA or liposome attachment assay). The settings on record: read-out: VnR Binding (IC50), purified receptor. (In general: In an ELISA, binding on a coated surface is turned into a signal by an enzyme label.)
Experimental: Receptor and ligand purifications were performed according to the methods in this Example or those in Example XI.C. Receptors were purified according to the procedures of Pytela et al. (Methods Enzymol. 144:475 (1987)), incorporated herein by reference. […] Except where stated, all procedures were carried out at 4° C. The peptide column was washed with three volumes of Tris-buffered saline (TBS) containing 1 mM Ca^2+ and 25 mM OG and then with TBS containing 1 mM Ca^2+ and 25 mM octyl thioglucoside (OTG) at room temperature. […] Finally, Ca^2+ and Mg^+2 were added to eluted fractions to achieve final concentrations of 1 mM for both ions.
Maxisorp microtiter plates were coated with 2 μg/ml human vitronectin dissolved in PBS (50 ml/well) and stored overnight at 4° C. The plates were washed two times with PBS-0.05% Tween-20 (wash buffer) and blocked by incubating with about 150 μl/well of assay buffer (1%, BSA (RIA grade or better) in 50 mM Tris-HCl, 100 mM NaCl, 1 mM MgCl2, CaCl2, MnCl2 pH 7.4) for 60 minutes. […] The plates were read at 492-405 nm and the data analyzed by four-parameters fit. […]
In parallel studies with the platelet aggregation experiments (described in Example V), the apparent affinities of peptides for GP IIb/IIIa, fibronectin and vitronectin receptors were determined. […]
Those for VnR and GP IIb/IIIa were determined either by ELISA or liposome attachment assay (Example IV).

Assay [2] has as its system platelets. The assay can be described thus: Ex vivo inhibition of platelet aggregation (Table IV). The assay is classed as in vivo, dog. The settings on record: dose as listed per peptide (bolus ± infusion). On the procedure:
(§1) Platelet aggregation assays were performed following the methods of this Example or those of Example IX.G. Platelet aggregation was assessed using the method of Born, (Nature 194:927-929 (1962)), incorporated herein by reference. Briefly, the change in light transmission was measured through a stirred suspension of platelets in an aggregometer (Model 400 VS, Chrono-Log, Havertown, Pa., USA). Studies employing ADP were performed with platelet-rich plasma (PRP), which was obtained by low-speed centrifugation (200×g for 10 min.) of whole blood freshly drawn into trisodium citrate (at a final concentration of 11 mM). In studies using thrombin, the PRP was gel-filtered on Sepharose 2B in divalent ion-free Tyrode's solution containing 2% BSA. For all studies, the reference standard was platelet-poor plasma, which was obtained by centrifuging PRP at 1000×g for 5 min.
(§2) Platelet counts and ex vivo aggregation studies were performed one hour before and 1, 3, and 5 hours after application of anodal direct current.
Using the method described in Example V to measure ex vivo inhibition of platelet aggregation and the method described in Example VII to measure bleeding, four additional peptides were tested. These peptides included 11J, 11Q, 11K and 11V.

For assay [3], the target named is platelets (Homo sapiens, UniProt P05106+P08514). The assay can be described thus: Platelet aggregation assay (Examples XI.G and XII). The assay is classed as cell-based. The settings on record: comparator analogue 32. On the procedure: as §1, with “Platelet” for “Platelet aggregation assays were performed following the methods of this Example or those of Example IX.G. Platelet”, “Nature” for “(Nature”, “(1962),” for “(1962)),”
Chain of platelets (Homo sapiens, UniProt P05106+P08514) (P08514 32-1039): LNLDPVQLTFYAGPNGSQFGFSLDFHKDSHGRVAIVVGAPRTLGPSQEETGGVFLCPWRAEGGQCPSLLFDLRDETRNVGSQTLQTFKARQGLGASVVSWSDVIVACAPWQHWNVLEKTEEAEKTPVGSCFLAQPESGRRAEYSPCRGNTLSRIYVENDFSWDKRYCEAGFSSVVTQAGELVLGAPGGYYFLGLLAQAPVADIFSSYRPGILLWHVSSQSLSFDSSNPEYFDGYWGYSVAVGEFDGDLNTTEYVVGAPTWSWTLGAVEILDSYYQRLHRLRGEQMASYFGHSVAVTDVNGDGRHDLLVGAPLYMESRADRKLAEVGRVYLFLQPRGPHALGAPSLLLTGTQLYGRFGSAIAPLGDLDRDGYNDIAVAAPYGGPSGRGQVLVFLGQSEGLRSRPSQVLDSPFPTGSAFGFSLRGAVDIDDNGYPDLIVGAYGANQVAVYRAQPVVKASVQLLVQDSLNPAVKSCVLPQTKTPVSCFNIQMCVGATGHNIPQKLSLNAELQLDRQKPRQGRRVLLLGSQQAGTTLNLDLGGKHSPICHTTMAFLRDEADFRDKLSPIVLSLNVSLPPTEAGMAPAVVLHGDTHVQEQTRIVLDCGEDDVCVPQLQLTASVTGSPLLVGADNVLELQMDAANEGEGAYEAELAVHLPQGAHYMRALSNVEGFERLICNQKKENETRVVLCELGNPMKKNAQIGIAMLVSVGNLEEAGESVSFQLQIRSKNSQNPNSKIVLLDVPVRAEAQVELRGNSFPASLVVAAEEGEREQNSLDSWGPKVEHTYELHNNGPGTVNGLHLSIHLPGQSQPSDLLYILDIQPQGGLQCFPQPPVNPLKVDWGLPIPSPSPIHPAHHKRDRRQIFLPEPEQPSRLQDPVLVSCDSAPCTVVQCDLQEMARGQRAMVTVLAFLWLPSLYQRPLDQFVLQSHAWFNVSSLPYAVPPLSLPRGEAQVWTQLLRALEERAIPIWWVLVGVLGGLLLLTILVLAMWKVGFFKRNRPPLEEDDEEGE
Chain of platelets (Homo sapiens, UniProt P05106+P08514) (P05106 27-788): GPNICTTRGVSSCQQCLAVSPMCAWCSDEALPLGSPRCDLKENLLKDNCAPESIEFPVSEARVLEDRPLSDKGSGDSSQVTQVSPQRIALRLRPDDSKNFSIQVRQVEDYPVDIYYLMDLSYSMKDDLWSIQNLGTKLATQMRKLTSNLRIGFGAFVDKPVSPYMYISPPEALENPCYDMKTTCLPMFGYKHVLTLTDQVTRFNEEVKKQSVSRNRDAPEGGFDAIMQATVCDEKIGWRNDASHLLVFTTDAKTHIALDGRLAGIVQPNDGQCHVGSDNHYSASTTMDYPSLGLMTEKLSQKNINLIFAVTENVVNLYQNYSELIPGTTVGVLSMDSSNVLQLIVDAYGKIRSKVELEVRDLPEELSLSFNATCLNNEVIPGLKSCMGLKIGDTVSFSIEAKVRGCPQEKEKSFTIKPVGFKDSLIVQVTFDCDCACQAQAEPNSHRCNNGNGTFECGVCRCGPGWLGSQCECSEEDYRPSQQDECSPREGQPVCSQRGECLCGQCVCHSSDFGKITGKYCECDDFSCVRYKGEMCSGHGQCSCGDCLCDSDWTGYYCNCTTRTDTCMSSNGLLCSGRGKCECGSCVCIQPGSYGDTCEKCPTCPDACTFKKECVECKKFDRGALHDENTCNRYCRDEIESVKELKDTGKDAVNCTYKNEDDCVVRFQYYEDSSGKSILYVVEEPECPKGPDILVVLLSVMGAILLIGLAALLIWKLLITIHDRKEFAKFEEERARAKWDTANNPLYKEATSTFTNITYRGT
All aggregation studies were performed at 37° C. with a constantly stirred suspension of 3×10^8 platelets/mL. (Platelet count was determined with the aid of a hemacytometer.) Peptides and stimulants were added to these suspensions in 1% dilutions. The PRP and gel-filtered platelets were used within three hours from the time of blood collection.
(§3) The peptides described in this Example were synthesized according to the methods of Examples I and XI. Selectivity and potency were measured according to the methods of Examples II through XI. The peptide identification numbers used in this Example are consistent and relevant to this Example only. Some of the peptides are identified by other nomenclature elsewhere in this document.

Assay [4] concerns canine platelets. Briefly: Canine platelet aggregation in vitro (ADP, arachidonic acid, collagen). The assay is classed as cell-based, dog. The method, then:
as §2
Epinephrine (550 nM) was used to prime platelets before stimulation with arachidonic acid. Peptides were added in 1% dilutions to the PRP solutions.

The subject of assay [5] is platelets. The assay can be described thus: Ex vivo platelet aggregation in the canine coronary thrombosis study. Set-up: species or system dog. The settings on record: 10 mg/kg injection; 1, 3 and 5 h. The method, then: For all ex vivo studies (see FIG. 3), control aggregation values were standardized to the percentages of light transmission observed in PRP and PPP samples (0% and 100%, respectively).
(§4) Animals were randomly assigned to two treatment groups: vehicle control (i.e., normal saline) or RGD peptides at various concentrations. Peptides were administered intra-atrially in both bolus and continuous injections. Each bolus injection consisted of 0.5 to 10 mg/kg and was administered 15 minutes before application of the current. A continuous infusion of the same peptide was then started immediately after completion of this initial injection. Animals received a 25 μg/kg/min to 200 μg/kg/min infusion. The anti-thrombotic effects of the peptides were monitored until 30 minutes after the occurrence of a persistent, occlusive thrombus or five hours after the initiation of electrical stimulation (whichever resulted first). If an occlusive thrombus had not developed within four hours after the initiation of current, the peptide infusion was stopped.
as §2
Platelet aggregation was also determined ex vivo at one, three, and five hours after current application. For these studies, arachidonic acid, or collagen was again used to stimulate the platelets.

The test system of assay [6] is coronary thrombosis. Briefly: Electrically induced canine coronary thrombosis (time to full occlusion). The settings on record: 10 mg/kg. The assay is classed as in vivo, dog. The method, then: Male mongrel dogs weighing 14 to 20 kg were selected based on proper aggregation of their platelets in response to arachidonic acid, collagen, and adenosine disphosphate (ADP) and based on similar weights and hemodynamic properties.
Before surgery, the animals were anesthetized with sodium pentobarbital (30 mg/kg, i.v.) and then intubated and ventilated on room air with positive pressure using a respirator (Harvard Apparatus, S. Natick, Mass.) at a volume of 30 ml/kg and a frequency of 12 breaths/min. Surgery, performed under aseptic conditions, was begun with the placement of cannulae into the left carotid artery and jugular vein for monitoring arterial blood pressure (Statham P23 pressure transducer, Gould, Inc., Cardiovascular Products, Oxnard, Calif.) and administering intravenous fluids.
The heart was exposed via a left thoracotomy through the 5th intercostal space. A 2-cm segment of the left circumflex coronary artery (LCCA) was isolated from surrounding tissue by blunt dissection. […] The intra-coronary electrode was constructed by attaching a 25-gauge hypodermic needle tip to a 30-gauge Teflon-insulated silver-coated copper wire. The mechanical occluder was constructed of stainless steel in a C shape with a Teflon screw (2 mm diameter) on top. It was adjusted to control vessel circumference and decrease the reactive hyperemic flow due to a 10-sec (full) occlusion by 50-70% without affecting basal coronary blood flow (FIG. 1). A monopolar epicardial electrode was sutured to the surface of the ventricle in the region of LCCA distribution to monitor ischemic changes in the electrocardiogram (ECG). The left atrium was cannulated with polythylene tubing for administration of the peptide. Continuous recordings of blood pressure, limb lead II ECG, epicardial electrogram, and mean and phasic LCCA blood flow were obtained on a Model 7 polygraph (Grass Instrument Co., Quincy, Mass.).
One hour after the completion of surgery, a 100 micro-amp continuous anodal direct current delivered from a 9 volt nickel-cadmium battery was applied to the intimal surface of the LCCA. The anode of the battery was in series with a 250,000 ohm potentiometer and the intraluminal coronary artery electrode. The electric circuit was completed by placing the cathode in a subcutaneous site. Electrical stimulation was applied for three hours. At the conclusion of each experiment, the heart was fibrillated electrically and quickly removed, and the LCCA was dissected free as far as possible to verify the position of the implanted anodal electrode.
as §4
Coronary thrombosis was quantified as the time to full occlusion. The effects of the various peptide treatments on coronary thrombosis is illustrated in FIG. 4.

The subject of assay [7] is prosthetic arterial graft thrombosis. Briefly: Platelet and fibrinogen uptake by Gore-Tex arterial grafts in ex vivo shunt. Set-up: species or system baboon. On the procedure: Adult male baboons (weighing 16 to 25 kg) were used in these studies. These were sedated with ketamine hydrochloride (200 to 250 mg intramuscular injection) and maintained under anesthesia with sodium pentobarbital (50 to 75 mg administered intravenously as necessary).
Twenty-four hours before the ex vivo shunt was established, platelets were isolated from 500 ml of blood from the test animal and labelled with ca. 500 microcuries of indium-111 oxine (Medi+Physics, Emeryville, Calif.), which irreversibly and specifically binds to platelets with an efficiency of 50%. Immediately after labelling, these platelets were then injected back into the animal and allowed to circulate for 24 hours. Immediately before the start of the study, fibrinogen that had been isolated from the animal and labelled with iodine-131 (DuPont Nuclear, Boston, Mass.) was also injected back into the animal. Also at this time, baseline determinations of the clotting and template bleeding times were made, and blood samples were drawn for hematology studies.
To establish the ex vivo shunt, the femoral artery and vein were percutaneously cannulated with introducer catheters (KMA Inc., Mansfield, Mass.). The catheters were then connected to medical-grade, heparin-coated silastic tubing (2.59 mm internal diameter, (Extracorporeal Medical Specialties, Inc., King of Prussia, Pa.). […] Finally, a 5 cm-long test segment of a 4 mm (internal diameter) vascular graft was inserted at the apex of the circuit. The graft used in these studies was Gore-tex (expanded polytetrafluoroethylene, (W. L. Gore and Associates, Inc., Flagstaff, Ariz.). An electromagnetic flow probe was then inserted into the tubing circuit to measure blood flow, which was maintained at 100 ml/min. by varying the resistance imported by a partially occluding screw clamp that was distal to the probe. Finally, a 5 cm-long test segment of a 4 mm (internal diameter) vascular graft was inserted at the apex of the circuit. The graft used in these studies was Gore-tex (expanded polytetrafluoroethylene, W. L. Gore and Associates, Inc., Flagstaff, Ariz.).
Platelet deposition onto the grafts was monitored by dynamic scanning with a gamma camera (Sigma 400, Ohio Nuclear, Inc., Sohon, Ohio), which detects the gamma radiation emitted by the ^111indium-labelled platelets. Once the circuit was in place, the animal was placed under this camera, and blood flow was initiated. Scans were then taken at the rate of one frame per two minutes for two hours. The data from these scans were collected on a dedicated Digital MDA computer (Maynard, Mass.). […]

Assay [8] relates to platelets. The assay can be described thus: Ex vivo platelet aggregation on PRP of baboon. The settings on record: animal 2; ADP 10 μm; 0, 1 and 2 hours. The assay is classed as in vivo. On the procedure: At one- and two-hour time points, template bleeding times were measured, and blood samples were drawn to assess the hematology aggregation studies. Platelet aggregation studies were performed as described in Example V using ADP as the stimulus.
In addition, platelet aggregation studies were conducted on PRP derived from the second animal. Whole blood was drawn at three time points (0, 1 and 2 hours) of both control and experimental shunts.

In assay [9] the test system is αvβ5. The assay can be described thus: αvβ5 ELISA IC50 (μM). The text has this:
Table printed on a drawing sheet, FIG. 20
Title: Modifications of R(Pmc)GHRGD(Y-OMe)RCR
Head of the field: αvβ5 ELISA IC50 (μM)
First copying reader's note: Footnote marks a, b and c are printed but their texts are not on the sheet; the underlined part of each sequence (Pmc to C) marks the cyclic portion, and D in (DH) and (DY) is a small capital for the D-amino acid.
Where the first naming reader finds the target: head: αvβ5 ELISA IC50 (μM)

Assay [10] deals with T2, αIIbβ3 (Homo sapiens, UniProt P05106+P08514).
T2 construct: Platelet glycoprotein IIb/IIIa was purified from outdated human platelets; from tissue; host or cells: outdated human platelets
T2 sequence (P08514 32-887 limits assumed): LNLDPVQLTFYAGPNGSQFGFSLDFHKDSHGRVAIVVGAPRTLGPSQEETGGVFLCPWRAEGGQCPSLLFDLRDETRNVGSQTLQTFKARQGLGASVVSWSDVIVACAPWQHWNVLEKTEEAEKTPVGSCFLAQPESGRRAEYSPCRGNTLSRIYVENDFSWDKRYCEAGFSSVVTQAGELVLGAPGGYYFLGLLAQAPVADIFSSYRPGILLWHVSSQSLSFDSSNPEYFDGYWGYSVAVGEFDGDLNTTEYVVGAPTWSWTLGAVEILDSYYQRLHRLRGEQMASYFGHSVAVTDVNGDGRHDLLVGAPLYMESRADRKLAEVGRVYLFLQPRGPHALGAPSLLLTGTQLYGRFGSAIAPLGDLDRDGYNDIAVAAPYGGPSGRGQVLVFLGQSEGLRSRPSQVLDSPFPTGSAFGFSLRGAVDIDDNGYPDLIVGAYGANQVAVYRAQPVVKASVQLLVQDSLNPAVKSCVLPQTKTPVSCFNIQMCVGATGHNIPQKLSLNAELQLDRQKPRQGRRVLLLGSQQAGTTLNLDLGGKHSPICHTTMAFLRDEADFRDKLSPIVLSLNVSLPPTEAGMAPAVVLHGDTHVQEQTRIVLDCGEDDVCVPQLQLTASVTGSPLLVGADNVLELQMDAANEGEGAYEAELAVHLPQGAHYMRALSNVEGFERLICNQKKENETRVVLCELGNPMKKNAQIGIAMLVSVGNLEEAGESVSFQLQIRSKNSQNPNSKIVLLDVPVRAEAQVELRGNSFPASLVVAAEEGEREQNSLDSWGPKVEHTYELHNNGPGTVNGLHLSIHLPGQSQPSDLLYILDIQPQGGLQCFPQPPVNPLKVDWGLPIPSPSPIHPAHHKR
T2 sequence (P08514 891-1039 partner limits assumed): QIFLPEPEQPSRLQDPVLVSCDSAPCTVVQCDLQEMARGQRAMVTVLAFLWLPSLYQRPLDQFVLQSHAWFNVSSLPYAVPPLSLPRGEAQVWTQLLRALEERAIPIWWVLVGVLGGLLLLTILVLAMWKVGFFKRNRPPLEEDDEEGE
T2 sequence (P05106 27-788): as the sequence (P05106 27-788) above
The assay can be described thus: αIIbβ3 (IIb/IIIa-fibrinogen) ELISA of Example XII. It counts as binding. The settings on record: comparator analogue 1. The method, then:
Microtiter plates were coated overnight at room temperature with 110 μL of human fibrinogen (at 10 μg/mL) diluted in TBS. The plates were then washed three times with 200 μL per well of TBS+0.05% Tween-20. Fifty (50) μL of purified IIb/IIIa diluted in TBS with 20 mM octylglucoside, 2 mM MgCl2 and 2 mM CaCl2 were added to the wells. Fifty (50) μLs of peptide in the same buffer were then added in 10-fold serial dilutions and the plates were incubated for three hours at room temperature. The plates were washed three times with TBS-Tween and 100 μL of rabbit anti-IIb/IIIa were added to each well. After a two hour room temperature incubation, the plates were washed and the remaining steps done as described for the FnR ELISA.
as §3

Assay [11] has as its system platelets. The assay can be described thus: Ex vivo platelet aggregation in dogs (Example XII.H). Set-up: species or system dog; dose or concentration left out as unconfirmed. On the procedure: More importantly, several peptides in FIG. 23 were administered to dogs (according to the method of Example VII) at doses capable of inhibiting ex vivo platelet aggregation by >95%.
The bleeding time indicated in the parentheses was measured at a five-fold higher concentration of peptide. […]

The mark [12] stands for this setting: animal 1, two bolus IV injections of 10 mg/kg.
The mark [13] stands for this setting: animal 2, 10 mg/kg bolus IV + 10 mg/kg/hr infusion for 2 h.

Where two headings read alike, the source gives them in different places.

T1 sequence (P06756 31-889 limits assumed): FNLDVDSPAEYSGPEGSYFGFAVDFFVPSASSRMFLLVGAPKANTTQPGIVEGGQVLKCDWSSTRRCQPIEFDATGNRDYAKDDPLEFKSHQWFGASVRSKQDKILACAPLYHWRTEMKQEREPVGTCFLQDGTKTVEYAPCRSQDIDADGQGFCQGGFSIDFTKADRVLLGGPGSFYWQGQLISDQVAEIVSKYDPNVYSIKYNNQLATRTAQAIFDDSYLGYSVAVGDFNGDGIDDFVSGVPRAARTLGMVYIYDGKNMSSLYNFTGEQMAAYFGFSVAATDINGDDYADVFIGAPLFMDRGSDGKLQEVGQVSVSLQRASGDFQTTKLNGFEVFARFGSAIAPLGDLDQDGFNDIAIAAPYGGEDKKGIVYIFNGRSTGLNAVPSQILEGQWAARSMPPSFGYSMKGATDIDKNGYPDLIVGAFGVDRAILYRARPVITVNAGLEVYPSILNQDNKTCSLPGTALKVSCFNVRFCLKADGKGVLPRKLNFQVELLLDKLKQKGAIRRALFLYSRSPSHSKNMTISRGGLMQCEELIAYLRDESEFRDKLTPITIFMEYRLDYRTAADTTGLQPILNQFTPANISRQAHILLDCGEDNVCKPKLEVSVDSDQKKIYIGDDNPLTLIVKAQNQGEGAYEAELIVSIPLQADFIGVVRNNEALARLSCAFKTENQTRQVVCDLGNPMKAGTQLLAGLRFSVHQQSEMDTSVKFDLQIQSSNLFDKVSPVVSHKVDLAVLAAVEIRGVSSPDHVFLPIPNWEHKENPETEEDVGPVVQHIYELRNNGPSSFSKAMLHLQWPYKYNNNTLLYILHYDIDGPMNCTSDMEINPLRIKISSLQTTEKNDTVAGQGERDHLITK
T1 sequence (P06756 891-1048 limits assumed): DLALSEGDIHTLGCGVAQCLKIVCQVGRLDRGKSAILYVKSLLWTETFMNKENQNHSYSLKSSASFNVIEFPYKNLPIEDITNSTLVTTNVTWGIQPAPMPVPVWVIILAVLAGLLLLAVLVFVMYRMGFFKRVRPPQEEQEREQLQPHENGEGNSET
T1 sequence (P05106 27-788): as the sequence (P05106 27-788) above

As for G(Pen)IARGDWNCA, the IC50 in [1] was 0.04 µM.
Consider Ac-CNPRGD(Y-OMe)EC-NH2 [11J], for which the “ex vivo inhibition platelet aggregation” value in [2] was more than 98%. Also, the “fold decrease in potency versus analogue 32” value in [3] was found to be 15 fold.
Turning to G(Pen)GHRGDLRCA [2G], in assay [4] (10 μm ADP, […] arachidonic acid or 9.6 micrograms/ml collagen, canine PRP, read-out: IC50 against canine platelet aggregation), the IC50 is 15 to 30 µM. In assay [5], the “effect on ADP-stimulated ex vivo aggregation” value is “substantially inhibited”, the “inhibition of AA-stimulated ex vivo aggregation relative to control” value was 43-70% and the “inhibition of collagen-stimulated ex vivo aggregation relative to control” value is 12-50%. In addition, the “coronary thrombosis: time to full occlusion” value in assay [6] is “did not significantly influence”. Besides, in assay [7] (setting [12]), the “reduction in 111In-platelet uptake by graft” value amounted to 90% and the “reduction in 131I-fibrinogen uptake by graft” value is reported as 79%. In assay [7] (setting [13]), the “reduction in labelled fibrinogen uptake by graft” value came to 78% and the “reduction in labelled platelet uptake by graft” value came to 84%. Moreover, the “ex vivo platelet aggregation response” value in [8] was “completely unresponsive to the peptide treatment”.
With R(Pmc)GYRGD(Y-OMe)RCR [compound 24], the IC50 in [9] was 8.8 µM.
With Ac-CNPRGD(Y-OMe)AC-NH2 [11K], in assay [2], the “ex vivo inhibition platelet aggregation” value was more than 98%. Moreover, the “platelet aggregation potency compared with analogue 32” value in assay [3] is reported as “substantial decreases”.
In the case of G(dPen)GHRGDLRCA, the “fold more potent than analogue 1 in the αIIbβ3 assay” value in assay [10] is “approximately 2 fold”.
Substance R(Pmc)G(DY)RGD(Y-OMe)RCR [compound 25] displayed an IC50 in [9] of 10 µM.
Same read-out and setting: to R(Pmc)GPRGD(Y-OMe)RCR [compound 26] belongs 1.7 µM.
With Ac-CNPRGD(Y-OMe)RCNH2 [8X], in [11], the “inhibition of ex vivo platelet aggregation” value is given as more than 95%.
As to GRGDSP [reference compound], in [4] (all three responses (ADP, arachidonic acid, collagen), read-out: concentration inhibiting canine platelet aggregation by 50%), the IC50 is approximately 130 µM.

Values taken from patent US6521594B1, “Method and composition for treating thrombosis” (La Jolla Cancer Research Foundation, priority 1990, dated 2003).
